Data: publication PMC9098913, “In vitro reconstitution of Escherichia coli divisome activation” (Nature Communications, 2022)
Values joined by “and” are separate entries in the source; they are usually repeats but may differ in a detail not shown here. Equal values may be shown once. Read-outs that look alike come from different tables or passages of the source.

Legend:
[1] = Single-molecule diffusion coefficient of FtsA on the membrane; settings: for Diffusion Coefficient: single-particle tracking, n = 3; for Single Molecule Diffusion Constant, mean: mean of Exp. 1-3, n = 3, Fig. 3b
Protocol: First, we studied the behaviour of single FtsA proteins on the membrane surface.
After 5 min of incubation, single molecule time lapses were acquired every 125, 250, 500, and 1000 and 2000 ms, with an exposure time of 50 ms. Subsequently, the bulk concentration of FtsA was increased to 0.2/0.4/0.8 µM and time lapses were repeated as described above.
Single molecules of FtsA or FtsZ were tracked using the TrackMate plugin from ImageJ[43]. To obtain the residence time of FtsZ and FtsA, we performed a residence time analysis as described before[40],[47]. Shortly, single molecules were imaged at different acquisition rates (0.1–2 s) and the lifetime of the molecules was extracted from each data set. To account for photobleaching effect, the obtained lifetimes were plotted against the acquisition rate. […] Furthermore, we extracted the diffusion coefficient of FtsA single molecules at increasing concentrations. For this, we filtered the obtained data, by considering only trajectories which are present on the membrane for more than 0.4 s. […] Subsequently, the diffusion coefficient of FtsA molecules was estimated by fitting an MSD curve to each individual trajectory.

FtsZ = settings: for FtsZ autocorrelation T: mean; for Autocorrelation Decay Tau: Fig. S2i, + FtsN
Protocol: Additionally, the reaction chamber contained 4 mM ATP and 4 mM GTP, as well as a scavenging system to minimize photobleaching effects: 30 mM d-glucose, 0.050 mg ml^−1 Glucose Oxidase, 0.016 mg ml^−1 Catalase, 1 mM DTT and 1 mM Trolox. Prior addition of all components a corresponding buffer volume was removed from the chamber to obtain a total reaction volume of 100 µl. The dynamic protein pattern was monitored by time-lapse TIRF microscopy at one frame per 2 s and 50 ms exposure time.
To measure reorganization dynamics of FtsZ filaments, we used a temporal correlation analysis based on the Image CorrelationJ 1o plugin. We quantified the PCC between the first frame to subsequent frames with increasing time lag (∆t). The decrease in the PCC was plotted against ∆t to obtain autocorrelation curves. Slower decay indicates more persistent structures. The rates of decay were extracted by fitting monoexponential decay to the autocorrelation curves y=a⋅e^−b⋅t+k , where a is the starting point, b is the decay rate and k is the final offset. The half time of the monoexponential decay was calculated via the decay rate.

FtsZ filaments = assay: Slope of linear regression FtsZ vs FtsA intensity (packing of FtsA below FtsZ filaments); assay type: biochemical, E. coli; settings: for Slope of linear regression: Fig. S2h
Description: While fluorescence microscopy cannot resolve molecular assemblies of these small dimensions, a higher packing density of FtsA R286W below FtsZ filaments could explain the enhanced colocalization with FtsZ. To test this hypothesis, we analysed the pixel-by-pixel relationship between the fluorescence intensities of FtsZ and FtsA in dual-colour fluorescence time-lapse movies. […] At low FtsA concentrations, we found the slopes for both proteins to be similar.
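Wherever Autocorrelation Decay Tau is given: FtsZ filament patterns imaged by time-lapse TIRF microscopy, one frame per 2 s, with ATP and GTP, Pearson correlation of first frame versus later frames, monoexponential fit, slower decay means persistent structures.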
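Wherever FtsZ autocorrelation T is given: FtsZ filament patterns imaged by time-lapse TIRF microscopy, one frame per 2 s, with ATP and GTP, Pearson correlation of first frame versus later frames, monoexponential fit, slower decay means persistent structures.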
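Wherever FtsZ autocorrelation is given: FtsZ filament patterns imaged by time-lapse TIRF microscopy, one frame per 2 s, with ATP and GTP, Pearson correlation of first frame versus later frames, monoexponential fit, slower decay means persistent structures.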

FtsA WT: wild-type E. coli actin-homologue FtsA, membrane anchor of FtsZ
Single Molecule Diffusion Constant ([1]; 0.1 µM FtsA, Exp. 1): 0.1660 µm2/s
Single Molecule Diffusion Constant ([1]; 0.1µM FtsA, Exp. 2): 0.0799 µm2/s
Single Molecule Diffusion Constant ([1]; 0.1 µM FtsA, Exp. 3): 0.1610 µm2/s
Diffusion Coefficient ([1]; 0.1 µM FtsA): 0.14 ± 0.04 µm^2/s
Single Molecule Diffusion Constant ([1]; 0.2 µM FtsA, Exp. 1): 0.0839 µm2/s
Single Molecule Diffusion Constant ([1]; 0.2µM FtsA, Exp. 2): 0.0498 µm2/s
Single Molecule Diffusion Constant ([1]; 0.2 µM FtsA, Exp. 3): 0.0248 µm2/s
Single Molecule Diffusion Constant, mean ([1]; 0.2 µM FtsA): 0.053 µm2/s and 0.0528 µm2/s
Single Molecule Diffusion Constant ([1]; 0.4 µM FtsA, Exp. 1): 0.0130 µm2/s
Single Molecule Diffusion Constant ([1]; 0.4µM FtsA, Exp. 2): 0.0096 µm2/s
Single Molecule Diffusion Constant ([1]; 0.4 µM FtsA, Exp. 3): 0.0225 µm2/s
Single Molecule Diffusion Constant, mean ([1]; 0.4 µM FtsA): 0.015 µm2/s and 0.0150 µm2/s
Single Molecule Diffusion Constant ([1]; 0.8 µM FtsA, Exp. 1): 0.0048 µm2/s
Single Molecule Diffusion Constant ([1]; 0.8µM FtsA, Exp. 2): 0.0025 µm2/s
Single Molecule Diffusion Constant ([1]; 0.8 µM FtsA, Exp. 3): 0.0035 µm2/s
Diffusion Coefficient ([1]; 0.8 µM FtsA): 0.004 ± 0.001 µm^2/s
FtsZ autocorrelation (FtsZ; 0.1 µM FtsA, Exp. 1): 103.16 s
FtsZ autocorrelation (FtsZ; 0.1µM FtsA, Exp. 2): 95.06 s
FtsZ autocorrelation T (FtsZ; 0.10 µM FtsA): 86.22 s
FtsZ autocorrelation (FtsZ; 0.2 µM FtsA, Exp. 1): 137.57 s
FtsZ autocorrelation (FtsZ; 0.2µM FtsA, Exp. 2): 43.74 s
FtsZ autocorrelation T (FtsZ; 0.20 µM FtsA): 87.69 s
FtsZ autocorrelation (FtsZ; 0.4 µM FtsA, Exp. 1): 70.56 s
FtsZ autocorrelation (FtsZ; 0.4µM FtsA, Exp. 2): 64.54 s
FtsZ autocorrelation T (FtsZ; 0.40 µM FtsA): 64.93 s
FtsZ autocorrelation (FtsZ; 0.8 µM FtsA, Exp. 1): 56.36 s
FtsZ autocorrelation (FtsZ; 0.8µM FtsA, Exp. 2): 98.59 s
Autocorrelation Decay Tau (FtsZ; replicate 1): 3.11 min
Autocorrelation Decay Tau (FtsZ; replicate 2): 2.08 min
Autocorrelation Decay Tau (FtsZ; replicate 3): 2.02 min
Slope of linear regression FtsZ vs FtsA (FtsZ filaments; 0.1 µM FtsA, mean): 0.64
Slope of linear regression, mean of single experiment (FtsZ filaments; 0.1µM, replicate column 1): 0.68
Slope of linear regression, mean of single experiment (FtsZ filaments; 0.1µM, replicate column 2): 0.37
Slope of linear regression, mean of single experiment (FtsZ filaments; 0.1µM, replicate column 3): 0.74
Slope of linear regression, mean of single experiment (FtsZ filaments; 0.1µM, replicate column 4): 0.70
Slope of linear regression FtsZ vs FtsA (FtsZ filaments; 0.2 µM FtsA, mean): 0.45
Slope of linear regression, mean of single experiment (FtsZ filaments; 0.2µM, replicate column 1): 0.40
Slope of linear regression, mean of single experiment (FtsZ filaments; 0.2µM, replicate column 2): 0.56
Slope of linear regression, mean of single experiment (FtsZ filaments; 0.2µM, replicate column 3): 0.40
Slope of linear regression, mean of single experiment (FtsZ filaments; 0.4µM, replicate column 1): 0.0747
Slope of linear regression, mean of single experiment (FtsZ filaments; 0.4µM, replicate column 2): 0.0547
Slope of linear regression, mean of single experiment (FtsZ filaments; 0.4µM, replicate column 3): 0.49
Slope of linear regression, mean of single experiment (FtsZ filaments; 0.4µM, replicate column 4): 0.31
Slope of linear regression FtsZ vs FtsA (FtsZ filaments; 0.8 µM FtsA, mean): 0.17
Slope of linear regression, mean of single experiment (FtsZ filaments; 0.8µM, replicate column 1): 0.16
Slope of linear regression, mean of single experiment (FtsZ filaments; 0.8µM, replicate column 2): 0.15
Slope of linear regression, mean of single experiment (FtsZ filaments; 0.8µM, replicate column 3): 0.23
Slope of linear regression, mean of single experiment (FtsZ filaments; 0.8µM, replicate column 4): 0.13
Slope of linear regression (FtsZ filaments; + FtsN, 0.10 µM, mean): 0.81 a.u.
Slope of linear regression (FtsZ filaments; + FtsN, 0.10 µM, replicate 1): 0.84 a.u.
Slope of linear regression (FtsZ filaments; + FtsN, 0.10 µM, replicate 2): 0.82 a.u.
Slope of linear regression (FtsZ filaments; + FtsN, 0.10 µM, replicate 3): 0.78 a.u.
Slope of linear regression (FtsZ filaments; + FtsN, 0.20 µM, mean): 0.65 a.u.
Slope of linear regression (FtsZ filaments; + FtsN, 0.20 µM, replicate 1): 0.62 a.u.
Slope of linear regression (FtsZ filaments; + FtsN, 0.20 µM, replicate 2): 0.61 a.u.
Slope of linear regression (FtsZ filaments; + FtsN, 0.20 µM, replicate 3): 0.72 a.u.
Slope of linear regression (FtsZ filaments; + FtsN, 0.40 µM, mean): 0.35 a.u.
Slope of linear regression (FtsZ filaments; + FtsN, 0.40 µM, replicate 1): 0.43 a.u.
Slope of linear regression (FtsZ filaments; + FtsN, 0.40 µM, replicate 2): 0.47 a.u.
Slope of linear regression (FtsZ filaments; + FtsN, 0.40 µM, replicate 3): 0.13 a.u.
Slope of linear regression (FtsZ filaments; without FtsN, 0.10 µM, mean): 0.70 a.u.
Slope of linear regression (FtsZ filaments; without FtsN, 0.10 µM, replicate 1): 0.52 a.u.
Slope of linear regression (FtsZ filaments; without FtsN, 0.10 µM, replicate 2): 0.85 a.u.
Slope of linear regression (FtsZ filaments; without FtsN, 0.10 µM, replicate 3): 0.71 a.u.
Slope of linear regression (FtsZ filaments; without FtsN, 0.20 µM, mean): 0.59 a.u.
Slope of linear regression (FtsZ filaments; without FtsN, 0.20 µM, replicate 1): 0.55 a.u.
Slope of linear regression (FtsZ filaments; without FtsN, 0.20 µM, replicate 2): 0.56 a.u.
Slope of linear regression (FtsZ filaments; without FtsN, 0.20 µM, replicate 3): 0.66 a.u.
Slope of linear regression (FtsZ filaments; without FtsN, 0.40 µM, mean): 0.16 a.u.
Slope of linear regression (FtsZ filaments; without FtsN, 0.40 µM, replicate 1): 0.24 a.u.
Slope of linear regression (FtsZ filaments; without FtsN, 0.40 µM, replicate 2): 0.066 a.u.
Slope of linear regression (FtsZ filaments; without FtsN, 0.40 µM, replicate 3): 0.18 a.u.

B1: FtsA R286W (protein)
chain: MIKATDRKLVVGLEIGTAKVAALVGEVLPDGMVNIIGVGSCPSRGMDKGGVNDLESVVKCVQRAIDQAELMADCQISSVYLALSGKHISCQNEIGMVPISEEEVTQEDVENVVHTAKSVRVRDEHRVLHVIPQEYAIDYQEGIKNPVGLSGVRMQAKVHLITCHNDMAKNIVKAVERCGLKVDQLIFAGLASSYSVLTEDERELGVCVVDIGGGTMDIAVYTGGALRHTKVIPYAGNVVTSDIAYAFGTPPSDAEAIKVRHGCALGSIVGKDESVEVPSVGGRPPWSLQRQTLAEVIEPRYTELLNLVNEEILQLQEKLRQQGVKHHLAAGIVLTGGAAQIEGLAACAQRVFHTQVRIGAPLNITGLTDYAQEPYYSTAVGLLHYGKESHLNGEAEVEKRVTASVGSWIKRLNSWLRKEF
modifications: Cy3 or Cy5 at the N-terminus in the labelled form (labelled CLEPTGG peptide conjugated to the 5xGly tag by sortagging); unlabelled protein also used; left off: TwinStrep-SUMO, N-terminal, cleaved | 5x
Single Molecule Diffusion Constant ([1]; 0.1 µM FtsA, Exp. 1): 0.4979 µm2/s
Single Molecule Diffusion Constant ([1]; 0.1µM FtsA, Exp. 2): 0.3931 µm2/s
Single Molecule Diffusion Constant ([1]; 0.1 µM FtsA, Exp. 3): 0.3496 µm2/s
Diffusion Coefficient ([1]; 0.1 µM FtsA): 0.42 ± 0.06 µm^2/s
Single Molecule Diffusion Constant ([1]; 0.2 µM FtsA, Exp. 1): 0.1893 µm2/s
Single Molecule Diffusion Constant ([1]; 0.2µM FtsA, Exp. 2): 0.1662 µm2/s
Single Molecule Diffusion Constant ([1]; 0.2 µM FtsA, Exp. 3): 0.2033 µm2/s
Single Molecule Diffusion Constant ([1]; 0.4 µM FtsA, Exp. 1): 0.1363 µm2/s
Single Molecule Diffusion Constant ([1]; 0.4µM FtsA, Exp. 2): 0.0718 µm2/s
Single Molecule Diffusion Constant ([1]; 0.4 µM FtsA, Exp. 3): 0.1951 µm2/s
Single Molecule Diffusion Constant ([1]; 0.8 µM FtsA, Exp. 1): 0.0600 µm2/s
Single Molecule Diffusion Constant ([1]; 0.8µM FtsA, Exp. 2): 0.0636 µm2/s
Single Molecule Diffusion Constant ([1]; 0.8 µM FtsA, Exp. 3): 0.0391 µm2/s
Single Molecule Diffusion Constant, mean ([1]; 0.8 µM FtsA): 0.054 µm2/s and 0.0542 µm2/s
Diffusion Coefficient ([1]; 0.8 µM FtsA): 0.05 ± 0.01 µm^2/s
FtsZ autocorrelation (FtsZ; 0.1 µM FtsA, Exp. 1): 160.44 s
FtsZ autocorrelation (FtsZ; 0.1µM FtsA, Exp. 2): 218.46 s
FtsZ autocorrelation T (FtsZ; 0.10 µM FtsA): 194.36 s
FtsZ autocorrelation (FtsZ; 0.2 µM FtsA, Exp. 1): 153.77 s
FtsZ autocorrelation (FtsZ; 0.2µM FtsA, Exp. 2): 78.66 s
FtsZ autocorrelation T (FtsZ; 0.20 µM FtsA): 136.59 s
FtsZ autocorrelation (FtsZ; 0.4 µM FtsA, Exp. 1): 331.53 s
FtsZ autocorrelation (FtsZ; 0.4µM FtsA, Exp. 2): 146.15 s
FtsZ autocorrelation T (FtsZ; 0.40 µM FtsA): 186.04 s
FtsZ autocorrelation (FtsZ; 0.8 µM FtsA, Exp. 1): 113.86 s
FtsZ autocorrelation (FtsZ; 0.8µM FtsA, Exp. 2): 144.33 s
Autocorrelation Decay Tau (FtsZ; replicate 1): 4.55 min
Autocorrelation Decay Tau (FtsZ; replicate 2): 8.41 min
Autocorrelation Decay Tau (FtsZ; replicate 3): 7.40 min
Slope of linear regression FtsZ vs FtsA (FtsZ filaments; 0.1 µM FtsA, mean): 0.43
Slope of linear regression, mean of single experiment (FtsZ filaments; 0.1µM, replicate column 1): 0.46
Slope of linear regression, mean of single experiment (FtsZ filaments; 0.1µM, replicate column 2): 0.49
Slope of linear regression, mean of single experiment (FtsZ filaments; 0.1µM, replicate column 3): 0.39
Slope of linear regression FtsZ vs FtsA (FtsZ filaments; 0.2 µM FtsA, mean): 0.60
Slope of linear regression, mean of single experiment (FtsZ filaments; 0.2µM, replicate column 1): 0.53
Slope of linear regression, mean of single experiment (FtsZ filaments; 0.2µM, replicate column 2): 0.81
Slope of linear regression, mean of single experiment (FtsZ filaments; 0.2µM, replicate column 3): 0.58
Slope of linear regression, mean of single experiment (FtsZ filaments; 0.4µM, replicate column 1): 0.63
Slope of linear regression FtsZ vs FtsA (FtsZ filaments; 0.8 µM FtsA, mean): 0.72
Slope of linear regression FtsZ vs FtsA (FtsZ filaments; above 0.2 µM, remained constant): ~ 0.7
